Test system: 616215-338-R-J1-PDC spheroids with HUVEC/MSC, viability
Assay: Anticancer human tumor 616215-338-R-J1-PDC patient-derived colon adenocarcinoma cell line growth inhibition [PI3K]
Conditions: for viability, T/C: stronger effect = lower value; active = viability on the fitted dose curve at most 10% of control; inactive = the rest
Summary of the method: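 Three cell types, namely tumor cells, endothelial cells and mesenchymal stem cells, formed each spheroid. Combinations with four PI3K inhibitors were screened at clinically achievable concentrations decreasing by half-log, and spheroid viability was recorded.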

[1] = curve of first compound, second compound 0.0316 µM
[2] = curve of first compound, second compound 0.1 µM
[3] = curve of first compound, second compound 0.316 µM
[4] = curve of first compound, second compound 1 µM
[5] = second compound 0.0316 µM, first compound 0.0316 µM
[6] = second compound 0.0316 µM, first compound 0.1 µM
[7] = second compound 0.0316 µM, first compound 0.316 µM
[8] = second compound 0.0316 µM, first compound 1 µM
[9] = second compound 0.0316 µM, first compound 3.16 µM
[10] = second compound 0.0316 µM, first compound 10 µM
[11] = second compound 0.1 µM, first compound 0.0316 µM
[12] = second compound 0.1 µM, first compound 0.1 µM
[13] = second compound 0.1 µM, first compound 0.316 µM
[14] = second compound 0.1 µM, first compound 1 µM
[15] = second compound 0.1 µM, first compound 3.16 µM
[16] = second compound 0.1 µM, first compound 10 µM
[17] = second compound 0.316 µM, first compound 0.0316 µM
[18] = second compound 0.316 µM, first compound 0.1 µM
[19] = second compound 0.316 µM, first compound 0.316 µM
[20] = second compound 0.316 µM, first compound 1 µM
[21] = second compound 0.316 µM, first compound 3.16 µM
[22] = second compound 0.316 µM, first compound 10 µM
[23] = second compound 1 µM, first compound 0.0316 µM
[24] = second compound 1 µM, first compound 0.1 µM
[25] = second compound 1 µM, first compound 0.316 µM
[26] = second compound 1 µM, first compound 1 µM
[27] = second compound 1 µM, first compound 3.16 µM
[28] = second compound 1 µM, first compound 10 µM
[29] = curve of first compound, second compound 3.16 µM
[30] = curve of first compound, second compound 10 µM
[31] = second compound 3.16 µM, first compound 0.0316 µM
[32] = second compound 3.16 µM, first compound 0.1 µM
[33] = second compound 3.16 µM, first compound 0.316 µM
[34] = second compound 3.16 µM, first compound 1 µM
[35] = second compound 3.16 µM, first compound 3.16 µM
[36] = second compound 3.16 µM, first compound 10 µM
[37] = second compound 10 µM, first compound 0.0316 µM
[38] = second compound 10 µM, first compound 0.1 µM
[39] = second compound 10 µM, first compound 0.316 µM
[40] = second compound 10 µM, first compound 1 µM
[41] = second compound 10 µM, first compound 3.16 µM
[42] = second compound 10 µM, first compound 10 µM
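Also: spheroids exposed to agents for seven days before the viability read.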

CC1(C)CCC(CN2CCN(c3ccc(C(=O)NS(=O)(=O)c4ccc(NCC5CCOCC5)c([N+](=O)[O-])c4)c(Oc4cnc5[nH]ccc5c4)c3)CC2)=C(c2ccc(Cl)cc2)C1 + COc1c(OCCCN2CCOCC2)ccc2c3n(c(=NC(=O)c4cnc(N)nc4)nc12)CCN3
< 0.0316 µM: IC50 [3] | IC50 [4]
> 10 µM: IC50 (curve of first compound, second compound 0.00316 µM) | IC50 (curve of first compound, second compound 0.01 µM) | IC50 [1] | IC50 [2]
inactive: viability, T/C (second compound 0.00316 µM, first compound 0.0316 µM) 94% | viability, T/C (second compound 0.00316 µM, first compound 0.1 µM) 103% | viability, T/C (second compound 0.00316 µM, first compound 0.316 µM) 109% | viability, T/C (second compound 0.00316 µM, first compound 1 µM) 99.7% | viability, T/C (second compound 0.00316 µM, first compound 3.16 µM) 88.7% | viability, T/C (second compound 0.00316 µM, first compound 10 µM) 95.2% | viability, T/C (second compound 0.01 µM, first compound 0.0316 µM) 84.7% | viability, T/C (second compound 0.01 µM, first compound 0.1 µM) 95.1% | viability, T/C (second compound 0.01 µM, first compound 0.316 µM) 98.2% | viability, T/C (second compound 0.01 µM, first compound 1 µM) 98.7% | viability, T/C (second compound 0.01 µM, first compound 3.16 µM) 84.2% | viability, T/C (second compound 0.01 µM, first compound 10 µM) 96.8% | viability, T/C [5] 96.8% | viability, T/C [6] 99.4% | viability, T/C [7] 100% | viability, T/C [8] 102% | viability, T/C [9] 93.1% | viability, T/C [10] 109% | viability, T/C [11] 96.1% | viability, T/C [12] 93.6% | viability, T/C [13] 107% | viability, T/C [14] 87.8% | viability, T/C [15] 83% | viability, T/C [16] 95.2% | viability, T/C [17] 47.4% | viability, T/C [18] 41.2% | viability, T/C [19] 45.5% | viability, T/C [20] 42.5% | viability, T/C [21] 27.6% | viability, T/C [22] 33.2% | viability, T/C [23] 24.3% | viability, T/C [24] 24.4% | viability, T/C [25] 25.5% | viability, T/C [26] 21% | viability, T/C [27] 13.2% | viability, T/C [28] 30%

CC1(C)CCC(CN2CCN(c3ccc(C(=O)NS(=O)(=O)c4ccc(NCC5CCOCC5)c([N+](=O)[O-])c4)c(Oc4cnc5[nH]ccc5c4)c3)CC2)=C(c2ccc(Cl)cc2)C1 + CC(Nc1ncnc2nc[nH]c12)c1cc2cccc(Cl)c2c(=O)n1-c1ccccc1
4.99 µM: IC50 [4]
inactive: viability, T/C [5] 98.3% | viability, T/C [6] 105% | viability, T/C [7] 110% | viability, T/C [8] 104% | viability, T/C [9] 71.3% | viability, T/C [11] 109% | viability, T/C [12] 103% | viability, T/C [13] 101% | viability, T/C [14] 96.7% | viability, T/C [15] 74.2% | viability, T/C [17] 107% | viability, T/C [18] 103% | viability, T/C [19] 107% | viability, T/C [20] 103% | viability, T/C [21] 76.6% | viability, T/C [23] 101% | viability, T/C [24] 107% | viability, T/C [25] 108% | viability, T/C [26] 110% | viability, T/C [27] 80.8% | viability, T/C [31] 108% | viability, T/C [32] 111% | viability, T/C [33] 99.2% | viability, T/C [34] 123% | viability, T/C [35] 85% | viability, T/C [37] 118% | viability, T/C [38] 105% | viability, T/C [39] 105% | viability, T/C [40] 105% | viability, T/C [41] 94.9%
5.14 µM: IC50 [29]
active: viability, T/C [10] 4.22% | viability, T/C [16] 3.61% | viability, T/C [22] 2.7% | viability, T/C [28] 2.87% | viability, T/C [36] 2.42% | viability, T/C [42] 2.49%
5.53 µM: IC50 [30]
4.79 µM: IC50 [3]
4.67 µM: IC50 [2]
4.56 µM: IC50 [1]

CC(Nc1ncnc2nc[nH]c12)c1cc2cccc(Cl)c2c(=O)n1-c1ccccc1 (stereo not drawn)
> 10 µM: IC50 (compound alone, run of 05/09/2023)
inactive: viability, T/C (compound 0.0316 µM) 103% [middle of 8 runs] | viability, T/C (compound 0.1 µM) 96.5% [middle of 8 runs] | viability, T/C (compound 0.316 µM) 99.3% [middle of 8 runs] | viability, T/C (compound 1 µM) 105% [middle of 8 runs] | viability, T/C (compound 3.16 µM) 102% [middle of 8 runs] | viability, T/C (compound 10 µM) 105% [middle of 8 runs]

CC(C)NCC(C(=O)N1CCN(c2ncnc3c2C(C)CC3O)CC1)c1ccc(Cl)cc1 (stereo not drawn) + Cc1nc(NC(=O)N2CCCC2C(N)=O)sc1-c1ccnc(C(C)(C)C(F)(F)F)c1
8.82 µM: IC50 [1]
8.31 µM: IC50 [2]
7.19 µM: IC50 [3]
4.35 µM: IC50 [30]
7.42 µM: IC50 [29]
inactive: viability, T/C [5] 97.2% | viability, T/C [6] 91.6% | viability, T/C [7] 91.8% | viability, T/C [8] 98.3% | viability, T/C [9] 91.8% | viability, T/C [10] 44.9% | viability, T/C [11] 89.5% | viability, T/C [12] 87.4% | viability, T/C [13] 92.8% | viability, T/C [14] 105% | viability, T/C [15] 90.1% | viability, T/C [16] 42% | viability, T/C [17] 103% | viability, T/C [18] 92.9% | viability, T/C [19] 98.7% | viability, T/C [20] 104% | viability, T/C [21] 70.8% | viability, T/C [22] 41.6% | viability, T/C [23] 98.9% | viability, T/C [24] 97.6% | viability, T/C [25] 95.6% | viability, T/C [26] 101% | viability, T/C [27] 84.9% | viability, T/C [28] 39.8% | viability, T/C [31] 111% | viability, T/C [32] 101% | viability, T/C [33] 102% | viability, T/C [34] 90.4% | viability, T/C [35] 71.4% | viability, T/C [36] 42.2% | viability, T/C [37] 96% | viability, T/C [38] 95.3% | viability, T/C [39] 91.6% | viability, T/C [40] 79.2% | viability, T/C [41] 57.8% | viability, T/C [42] 30.3%
7.82 µM: IC50 [4]

— PubChem BioAssay AID1963978 (Molecular Pharmacology Branch, DTP, NCI, 2024)
